Columns and labels:
Akt phosphorylation = test: Akt Phosphorylation Assay (western blot), Panc-1; format: cell-based, human; settings: at 10 μM, * = activation
In short: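 Phospho-Akt (Ser473) was measured by western blot in lysates of KRas G12D Panc-1 cells exposed to test compound for 6 h at 37 °C, either at 10 μM final with 0.3% DMSO or as serial dilutions for IC50. One format used overnight 0.5% FBS starvation followed by a 15 min pulse of 1.5 ng/ml EGF. The other used cells in 10% FBS with no stimulation.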

KRas G12D mutant = test: Ras GTP Binding Domain Inhibition Assay (Ras Superfamily Assay); settings: at 20 μM; for KRas G12D mutant + SOS: % inh.: with SOS; for KRas G12D mutant: % inh.: without SOS
In short: (§1)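 Binding of 100 nM fluorescent GTP (Cy3 or Cy5, 45 min, room temperature) was read after washes from plate-captured His-tagged protein. Beforehand, compounds at 20 μM or in dilution series for IC50 sat 3 h on the protein in Tris buffer pH 7.4 or 7.0 with 1% DMSO, Sos GEF optionally added for the last hour.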

KRas wild type = test: as above; settings: at 20 μM; for KRas wild type + SOS: % inh.: with SOS; for KRas wild type: % inh.: without SOS
In short: as §1

Rac-1 = target: T1, Rac-1 (Homo sapiens, UniProt P63000); test: as above; settings: read-out: Rac-1: % inh.
T1 construct: made in house
In short: as §1

Row | KRas G12D mutant + SOS: % inh. (KRas G12D mutant) | KRas G12D mutant: % inh. (KRas G12D mutant) | KRas wild type + SOS: % inh. (KRas wild type) | KRas wild type: % inh. (KRas wild type) | inhibition at 20 µM (Rac-1) [%] | Compound | % inh of Akt phosphorylation in Panc-1 (Akt phosphorylation)
1 | A (A = 1-25% inhibition) | B (B = 26-49% inhibition) | 0 (0 = 0% inhibition) | A (A = 1-25% inhibition) | 1 to 25 | Cc1c(-c2ccn(C)n2)cn2nc(-c3nccn3C)nc(Nc3ccc(-n4ccnc4)cn3)c12 [Compound 242, N-(5-(1H-Imidazol-1-yl)pyridin-2-yl)-5-methyl-2-(1-methyl-1H-imidazol-2-yl)-6-(1-methyl-1H-pyrazol-3-yl)pyrrolo[2,1-f][1,2,4]triazin-4-amine] | D* (85-100% activation)
2 | D (D = 76-100% inhibition) | D (D = 76-100% inhibition) | D (D = 76-100% inhibition) | D (D = 76-100% inhibition) | 76 to 100 | Cc1c(-c2ccn(C)n2)cn2nc(-c3nccn3C)nc(Nc3ccc(-n4ccnc4C)cn3)c12 [Compound 243, 5-Methyl-N-(5-(2-methyl-1H-imidazol-1-yl)pyridin-2-yl)-2-(1-methyl-1H-imidazol-2-yl)-6-(1-methyl-1H-pyrazol-3-yl)pyrrolo[2,1-f][1,2,4]triazin-4-amine] | D* (85-100% activation)
